In the case of `Cc1ccccc1-c1cnc2c(C(F)(F)F)cccc2c1-c1cccc(NC(=O)Nc2ccccc2F)c1` [Example 573, N-(2-FLUOROPHENYL)-N′-{3-[3-(2-METHYLPHENYL)-8-(TRIFLUOROMETHYL)QUINOLIN-4-YL]PHENYL}UREA], the melting point is reported as 218 to 220 °C.

— patent US7576215B2, “Quinolines and pharmaceutical compositions thereof” (Wyeth, priority 2003, dated 2009)
